Experimental data from patent publication US20240108577A1, “CONTROLLED RELEASE OF […] A SOURCE MATERIAL” (Syqe Medical Ltd., priority 2022, published 2024).

Tests used:
[1] = Pre-packaging refrigeration stability of ground MC powder (5° C.±2° C., up to 12% RH), LOD and U-HPLC of phytocannabinoids; assay type: physicochemical; settings: for change in phytocannabinoid concentration during storage: up to 3 months, one-way ANOVA
Procedure: In the described experiment, Bedrocan strain MC powder was stored at 5° C.±2° C. with up to 12% relative humidity (RH) in a polypropylene container, sealed in an aluminum foil pouch (Oliver-Tolas Healthcare Packaging B.V.; Venray, Netherlands). In order to assess its stability during the handling and hold time, samples were taken from three separate growing batches and assayed at baseline and at 1, 2 and 3 months post grinding. Each sample was assayed for loss on drying (LOD), and of the concentrations of the major phytocannabinoids (CBDA, CBD, CBGA, CBN, THCA and THC).
(§1) Analysis of cannabis inflorescences for the main phytocannabinoids (CBDA, CBD, CBGA, CBN, THCA and THC) was performed as follows: 100 mg of ground Cannabis inflorescences were weighed in duplicate from one container and extracted with 25 mL methanol then sonicated for 40 min and centrifuged at 3000 rpm for 5 min. All samples were filtered through a 0.22 μm PP filter vail prior to analysis. The dilution and quantitation were preformed corresponding to calibration curves. The main six phytocannabinoids were analyzed by ultra-high-performance liquid chromatography (UHPLC: […]) system with a refrigerated auto-sampler, thermostatic column oven and ultraviolet detector, Waters ACQUITY UPLC H-Class. Chromatographic separation was achieved using UPLC column Waters Acquity C18, 1.7 μm particles, 2.1×150 mm maintained at 30° C. The phytocannabinoids were separated using a gradient elution with mobile phases of 0.1% (v/v) formic acid in double-distilled water (phase A) and acetonitrile (phase B), respectively. A constant flow rate of 0.4 mL/min was employed throughout. The gradient profile varied from 70% to 100% B in 10.5 min, held for 0.5 min in these conditions and then returned to the initial conditions.
(§2) For THC and CBD, the concentrations of the acid and its neutral counterpart were summed and reported as the total content. For example, the concentration of total THC […] was calculated as: Total THC=THCA*0.877+THC, with 0.877 being the molar ratio between the two compounds that corrects for a change in the mass of THCA as a result of the loss of CO2 (decarboxylation). This is shown in FIG. 7A: “U-HPLC analysis of the Bedrocan cultivar”.
(§3) R software (V.1.1.463) with tidyverse (17) package was used to analyze changes in outcome measures by one way ANOVA test, using Fisher's exact test analysis. All analyses were followed by a Tukey post-hoc test for multiple comparison. Data are presented as Mean±95% confidence interval (CI). Differences were considered significant at the p<0.05 level.

[2] = Long-term stability of ground cannabis packaged in Syqe cartridges at 25° C.±2° C. (RH 60%±5%), LOD and U-HPLC; assay type: physicochemical; settings: for change in phytocannabinoid amount during storage: RH 60%, up to 24 months, one-way ANOVA
Procedure: (§4) In some embodiments, once cartridges are produced, they are stored, distributed and used at RT. In order to assess the shelf life of such cartridges, a long-term stability study was performed, during which cartridges were stored at 25° C.±2° C. (RH 60%±5%) in a calibrated and certified stability chamber (Memmert Constant climate chamber HPP260). 9, 6, 9, 8, 7, 4 and 4 separate growing batches were tested at baseline and after 3, 6, 9, 12, 18 and 24 months, respectively. At each time point samples of the ground inflorescence within the cartridges were analyzed for LOD and for the amount (mg) of each of the major phytocannabinoids (CBDA, CBD, CBGA, CBN, THCA and THC). Of the same batches, THC aerosolized by the Syqe inhaler was analyzed at baseline and at 6, 9, 18 and 24 months.
as §1, §2, §3

[3] = Stability of Syqe cartridges stored at 30° C.±2° C. (65% RH±5% RH), LOD and U-HPLC; assay type: physicochemical; settings: for change in phytocannabinoid amount during storage: 65% RH, up to 6 months, one-way ANOVA; for amounts detected at all time points: BL to 6 months
Procedure: Additionally, to assess the effects of a warmer temperature on MC, Syqe cartridges were stored post-production at an elevated temperature and humidity of 30° C.±2° C. (65% RH±5% RH). Three different growing batches were analyzed at baseline and at 1, 2, 4 and 6 months of storage.
as §1, §2, §3

[4] = Heating of ground cannabis samples to target temperatures 60-150° C.; vaporized THC measured in aerosol, residual terpenes by GC/MS; assay type: physicochemical; settings: 135 mg ground cannabis, THC measured in the aerosol, FIG. 6A
Procedure: The vaporization plots in FIGS. 6A-B show results of an experiment performed by the inventors in which samples of 135 mg of ground cannabis were heated to several target temperatures, including 60° C., 70° C., 80° C., 90° C., 100° C., 110° C., 120° C., 130° C., 140° C. and 150° C. At each of the target temperatures, vaporized THC was measured in the aerosol. At each of the target temperatures, the residual mass of ground cannabis was analyzed using Gas Chromatography-Mass Spectrometry (GC/MS) to determine existence of terpenes, such as: Linalool, Isopulegol, Geraniol, Caryophyllene, […] Humulene<alpha-> and Nerolidol. The total terpenes residue (as remaining in the ground cannabis) is indicated by the dashed line in FIG. 6A. Based on the residual mass of terpenes, the released (vaporized) amount terpenes was calculated, by subtracting the measured residual mass from a respective reference mass.
As can be observed from FIG. 6A, THC (indicated by the continuous line) release started at a target temperature of 130 degrees C., and increased with the rising of the target temperature (up to 150 degrees C.).

[5] = THC dose aerosolized by the Syqe inhaler from cartridges stored at 25° C. up to 24 months; assay type: physicochemical; settings: for aerosolized THC dose: inhaler set to 500 μg THC, mean±95% CI
Procedure: as §4
In some embodiments, the Syqe inhaler is preprogrammed with several distinct heating protocols. In some embodiments, each heating protocol is tailored to heat a VC and deliver an aerosol containing 250, 500, 750 or 1,000 μg or intermediate, larger or smaller amounts of THC to the user. In some embodiments, THC serves as an indicator for dose selection and is optionally delivered with an entourage of phytocannabinoids, terpenes and other molecules of the whole inflorescence that vaporize into the aerosol with it. […] Other dosage amounts are also to be contemplated, any may also serve as optimal dosing, depending on the need. For example, dosage amounts of between 50-5000 μg Δ^9-THC, 200-1000 μg Δ^9-THC, 50-500 μg Δ^9-THC, 1000-5000 μg Δ^9-THC, or intermediate, higher or lower ranges.
In the framework of the two-year stability study, samples were also taken for aerosolization using the Syqe Inhaler. The Syqe Inhaler was set to aerosolize 500 μg THC doses, in accordance with some embodiments. Data is provided only for time points in which three or more batches were tested (namely, BL and 6, 9, 18 and 24 months). […] BL, 6-, 9-, 18-, and 24-months' values were 484.76±31.28n, 486.30±50.56n, 563±22.06 μg, 597.94±16.75 μg and 554.67±36.00 μg, respectively. All aerosolized THC doses were well within the 500 μg±25% range (i.e., 375-625 μg) that apply to pharmaceutical grade inhalers (16).

[6] = after four years, room temperature (22 C), light or darkness (conditions A and B); cited from earlier work

Row | Compound | change in phytocannabinoid concentration during storage [1] | change in phytocannabinoid amount during storage ([2]; 25° C.) | change in phytocannabinoid amount during storage [3] | amounts detected at all time points [3] | further results
1 | CCCCCc1cc2c(c(O)c1C(=O)O)[C@@H]1C=C(C)CC[C@H]1C(C)(C)O2 (relative stereo) [THCA, (−)-Δ^9-trans-tetrahydrocannabinolic acid] | no significant change | decreased significantly | decreased significantly | – | –
2 | C=C(C)[C@@H]1CCC(C)=C[C@H]1c1c(O)cc(CCCCC)cc1O [CBD, Cannabidiol, reference compound] | – | – | – | mostly undetected | concentration detected at all time points ([1]; BL to 3 months): mostly undetected; concentration detected at all time points ([2]; 25° C., BL to 24 months): mostly non-detected
3 | C=C(C)[C@@H]1CCC(C)=C[C@H]1c1c(O)cc(CCCCC)c(C(=O)O)c1O [CBDA, Cannabidiolic acid] | no significant change | no significant change | – | mostly undetected | pre-storage amount ([2]; before storage): ≤ 0.006 mg/sample
4 | CCCCCc1cc(O)c(C/C=C(\C)CCC=C(C)C)c(O)c1C(=O)O [CBGA, Cannabigerolic acid] | no significant change | decreased significantly | decreased significantly | – | –
5 | CCCCCc1cc(O)c2c(c1)OC(C)(C)c1ccc(C)cc1-2 [CBN, Cannabinol] | no significant change | increased significantly | increased significantly | – | –
6 | CCCCCc1cc(O)c2c(c1)OC(C)(C)[C@@H]1CCC(C)=C[C@@H]21 [THC, (−)-Δ^9-trans-tetrahydrocannabinol] | no significant change | increased | increased significantly | – | target temperature at which THC release started [4]: 130 degrees C.; change in phytocannabinoid amount during storage ([2]; 25° C., listed as Δ^9-THC): increased significantly; aerosolized THC dose ([5]; 6 months at 25° C.): 486.30±50.56 n; aerosolized THC dose ([5]; 9 months at 25° C.): 563 ± 22.06 µg; aerosolized THC dose ([5]; 18 months at 25° C.): 597.94 ± 16.75 µg; aerosolized THC dose ([5]; 24 months at 25° C.): 554.67 ± 36.00 µg; range within which all aerosolized THC doses remained ([5]; BL to 24 months at 25° C., 500 μg±25%): 375 to 625 µg; aerosolized THC dose ([5]; BL): 484.76±31.28 n; THC degraded [6]: ~100%
